Data: patent US12558424B2, “T cells having enhanced anti-tumor activity” (The United States of America, as represented by the …, priority 2019, dated 2026)
pEC50, pIC50: −log10 of the molar value. Like-named read-outs stand apart in the source and are kept apart here.

Legend:
LDH(A) = LDH(A) (Homo sapiens, UniProt P00338); assay: LDH(A) biochemical IC50
[1] = test system: murine splenic CD8+ T cells; assay: U-13C-glucose tracer study; type: cell-based, mouse; settings: NCI-737 1 μM
Procedure: (§1) Except where otherwise specified, all experiments were performed with murine splenic CD8+ T cells isolated with […] Technologies EasySep™ Mouse CD8+ T Cell Isolation Kit (catalog #19853). Following isolation, cells were resuspended at 1×10^6 cells/ml in T cell culture medium: RPMI 1640 medium (Thermo 11875093) containing 10% fetal bovine serum (FBS), 1× Glutamax (Life Technologies #35050-061), 1 mM sodium pyruvate, 0.1% β-mercaptoethanol, and penicillin/streptomycin. Cells were plated in 24-well tissue culture plates precoated with mouse anti-CD3 (2 μg/ml) and cultured with soluble mouse anti-CD28 (2 μg/ml) for 48 h. After incubation, cells were pooled, washed twice in media, and re-plated at 1×10^6 cells/ml. […] Unless otherwise specified, cells were stimulated for 48 h before being harvested. […]
(§2) Cells were then washed with media supplemented with dialyzed fetal bovine serum (“FBS”) (Thermo-Fischer #A3382001), replated in RPMI 1640 medium containing 10% dialyzed FBS, 1× Glutamax (ThermoFisher #35050061), 1 mM sodium pyruvate, 0.1% β-mercaptoethanol, and penicillin-streptomycin, and re-stimulated with same cytokine treatment for 5 h. […] Cell extracts were analyzed using a quadrupole-orbitrap mass spectrometer (Q Exactive, Thermo Fisher Scientific, San Jose, CA) coupled to hydrophilic interaction chromatography via electrospray ionization. […] Data were analyzed using EL-MAVEN software. […]

B16 melanoma (B16KVP) = assay: Mouse tumor model and adoptive transfer; type: in vivo
human CD8+ T cells = assay: Seahorse mitochondrial stress test (OCR, ECAR, SRC), human CD8+ T cells; type: cell-based; settings: both IL-21 and IL-2
[2] = test system: murine splenic CD8+ T cells; assay: RNA-Seq gene expression; type: cell-based, mouse
Procedure: (§3) Except where otherwise specified, all experiments were performed with murine splenic CD8+ T cells isolated with […] Technologies EasySep™ Mouse CD8+ T Cell Isolation Kit (catalog #19853). Following isolation, cells were resuspended at 1×10^6 cells/ml in T cell culture medium: RPMI 1640 medium (Thermo 11875093) containing 10% fetal bovine serum (FBS), 1× Glutamax (Life Technologies #35050-061), 1 mM sodium pyruvate, 0.1% β-mercaptoethanol, and penicillin/streptomycin. Cells were plated in 24-well tissue culture plates precoated with mouse anti-CD3 (2 μg/ml) and cultured with soluble mouse anti-CD28 (2 μg/ml) for 48 h. After incubation, cells were pooled, washed twice in media, and re-plated at 1×10^6 cells/ml. […] Unless otherwise specified, cells were stimulated for 48 h before being harvested. Where noted, cells were treated (1 μM) with a novel, pyrazole-based LDH inhibitor (NCI-737, herein denoted as NCI-737) that was developed under the auspices of the NCI Experimental Therapeutics Program 29.
Total RNA was extracted using an RNA miniprep kit (Zymo Research), and 500 ng RNA was used for library preparation. RNA-Seq libraries were prepared using mRNA HyperPrep Kits (KK8580, Kapa Biosystems) and indexed with NEXTflex DNA Barcodes-24. After final amplification, samples were loaded to 2% E-Gel pre-cast gels (ThermoFisher), and 250 to 400 bp DNA fragments were recovered and purified with Zymoclean Gel DNA Recovery Kit […]. After quantification by Qubit (Invitrogen), barcoded samples were mixed and sequenced on an Illumina HiSeq3000 platform. Sequenced reads (50 bp, single end) were obtained with the Illumina CASAVA pipeline and mapped to the mouse genome mm10 (GRCm38, December 2011) using Bowtie 2.2.649 and Tophat 2.2.149. Only uniquely mapped reads were retained. Raw counts that fell on exons were calculated and normalized by using RPKM (Reads Per Kilobase per Million mapped reads). Differentially expressed genes were identified with the R Bioconductor package edgeR50, and the expression heat maps were generated with the R package “pheatmap”. Metabolic genes were extracted from the KEGG pathway database, including those corresponding to Fatty Acid Biosynthesis/Degradation, Ox/Phos, Pyruvate metabolism, amino sugar and nucleotide sugar metabolism, pentose phosphate pathway, the citric acid cycle, and glycolysis/gluconeogenesis. Metabolic genes that overlapped with RNA-Seq data were subsequently shown in heat maps.

[3] = PK AUC after IV and PO dosing; settings: in vivo
MiaPaCa [4] = assay: MiaPaCa Lactate OP; type: cell-based; settings: Homo sapiens, MIA PaCa-2; MiaPaCa cells
pmel-1 CD8+ T cells = assay: Flow cytometry of pmel-1 CD8+ T cell differentiation (CD44, CD62L, Sca-1); type: cell-based, mouse; settings: NCI-737 1 μM
[5] = test system: murine splenic CD8+ T cells; assay: LC-MS metabolomics of intracellular metabolites; type: cell-based, mouse; settings: NCI-737 1 μM
Procedure: as §3
Cells were then washed with media supplemented with dialyzed fetal bovine serum (“FBS”) (Thermo-Fischer #A3382001), replated in RPMI 1640 medium containing 10% dialyzed FBS, 1× Glutamax (ThermoFisher #35050061), 1 mM sodium pyruvate, 0.1% β-mercaptoethanol, and penicillin-streptomycin, and re-stimulated with same cytokine treatment for 5 h. For ^13C labelling, cells were instead replated in media containing 2 g/L U^13C-glucose (Cambridge Isotope Laboratories #CLM-1396) for 6 h. 3×10^6 cells/replicate (3-4 replicates/treatment) were then transferred to microcentrifuge tubes and centrifuged for 1 min at 6000×g. Room temperature PBS was added to wash cell pellets followed by another round of centrifugation for 1 min. Pellets were then immediately resuspended in 150 μl of ice cold extraction solvent (40:40:20 acetonitrile:methanol:water+0.5% formic acid) for 5 min. After incubation, 13.2 μl of 15% ammonium bicarbonate, was added and samples were centrifuged for 15 min at maximum speed at 4° C. Supernatant containing cellular metabolites was transferred to a fresh tube, frozen in dry ice, and stored at −80° C. Cell extracts were analyzed using a quadrupole-orbitrap mass spectrometer (Q Exactive, Thermo Fisher Scientific, San Jose, CA) coupled to hydrophilic interaction chromatography via electrospray ionization. LC separation was on a XBridge BEH Amide column (2.1 mm×150 mm, 2.5 μm particle size; Waters, Milford, MA) using a gradient of solvent A (20 mM ammonium acetate, 20 mM ammonium hydroxide in 95:5 water: acetonitrile, pH 9.45) and solvent B (acetonitrile). The flow rate was 150 μl/min, column temperature was 25° C., autosampler temperature was 5° C., and injection volume was 10 μL. The LC gradient was: 0 min, 90% B; 2 min, 85% B; 3 min, 75% B; 7 min, 75% B; 8 min, 70% B; 9 min, 70% B; 10 min, 50% B; 12 min, 50% B; 13 min, 25% B; 14 min, 25% B; 16 min, 0% B; 21 min, 0% B; 22 min, 90% B; 25 min, 90% B. Autosampler temperature was 5° C., and injection volume was 10 μl. The mass spectrometer was operated in negative ion mode to scan from m/z 70 to 1000 at 1 Hz and a resolving power of 140,000 45. Data were analyzed using EL-MAVEN software. Isotope labeling was corrected for natural 13C abundance47. Media measurements were acquired using a YSI 2900 Series Biochemical Analyzer (Xylem).

A673 [6] = assay: A673 Lactate OP; type: cell-based; settings: Homo sapiens; A673 cells
MiaPaCa [7] = assay: MiaPaCa CTG; type: cell-based; settings: Homo sapiens, MIA PaCa-2; MiaPaCa cells
LDA(B) = LDA(B) (Homo sapiens, UniProt P07195); assay: LDA(B) biochemical IC50
A673 [8] = assay: A673 CTG; type: cell-based; settings: Homo sapiens; A673 cells
lactate dehydrogenase = lactate dehydrogenase (Homo sapiens, UniProt P00338); assay: SPR binding (+NADH)
[9] = test system: murine splenic CD8+ T cells; assay: Media measurements of lactate secretion and glucose consumption (YSI 2900 analyzer); type: cell-based, mouse; settings: IL-2- or IL-21-stimulated cells; NCI-737 1 μM
Procedure: as §1, §2

mouse CD8+ T cells = assay: Seahorse mitochondrial stress test (OCR, ECAR, SRC), mouse CD8+ T cells; type: cell-based; settings: NCI-737 1 μM
Procedure: as §3
The oxygen consumption rates (OCR) and extracellular acidification rates (ECAR) were recorded using a Seahorse XFe96 Analyzer (Agilent). Cells were washed and resuspended in Agilent XF Assay Medium supplemented with 25 mM glucose, 1 mM sodium pyruvate, and 2 mM L-Glutamine. Cells were plated on Seahorse Assay plates at 0.2×10^6 cells/well and during the assay were exposed to 1 μM oligomycin, 1.5 μM trifluoromethoxy carbonylcyanide phenylhydrazone (“FCCP”), 100 nM rotenone, and 1 μM antimycin A, as indicated.

[10] = PO 50 mg/kg, read-out: PO 50 mg/kg AUC

Chain of LDA(B) (P07195 whole entry): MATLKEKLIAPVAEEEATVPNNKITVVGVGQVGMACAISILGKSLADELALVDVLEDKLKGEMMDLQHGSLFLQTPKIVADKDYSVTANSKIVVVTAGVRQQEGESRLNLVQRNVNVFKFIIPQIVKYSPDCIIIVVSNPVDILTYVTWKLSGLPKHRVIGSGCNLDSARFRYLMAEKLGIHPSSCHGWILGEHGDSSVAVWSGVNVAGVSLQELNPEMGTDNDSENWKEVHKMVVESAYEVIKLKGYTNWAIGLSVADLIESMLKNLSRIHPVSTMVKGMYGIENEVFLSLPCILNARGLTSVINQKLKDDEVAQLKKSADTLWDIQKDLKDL

Cc1ccc(C#Cc2cccc(-c3nn(-c4nc(C(=O)O)cs4)c(CC4CC4)c3Cc3ccc(S(N)(=O)=O)c(F)c3)c2)s1 [Compound 420737]
pIC50 (LDH(A)): 7.17
relative contribution of glucose into the TCA cycle ([1]; IL-2-treated cells): higher relative contribution
isotopomer distribution ([1]; IL-21-stimulated cells): little effect
antitumor effect of adoptively transferred pmel-1 CD8+ T cells (B16 melanoma (B16KVP); IL-2-treated cells, NCI-737 1 μM only during in vitro expansion): augmented the antitumor effect to the level of IL-21-treated cells
antitumor effect of adoptively transferred pmel-1 CD8+ T cells (B16 melanoma (B16KVP); cells generated with IL-21 and NCI-737 (1 μM, in vitro only)): the most potent
ECAR (human CD8+ T cells): decreased
SRC (human CD8+ T cells): raised
transcripts for exhaustion-associated transcription factors Nr4a1, Nr4a2, Nrfa3, Prdm1 ([2]; IL-2-induced, addition of NCI-737): decreased by the addition of NCI-737 to levels similar to that observed in cells cultured with IL-21
induction of Ldha by IL-2 ([2]; IL-2 context, NCI-737 1 μM): prevented the induction
levels of Ldhb ([2]; IL-2 context, NCI-737 1 μM): increased
XBP1 transcript expression ([2]; induced by IL-2, NCI-737): inhibited
transcripts for exhaustion markers Lag3, Pdcd1, Cd244, Havcr2 ([2]; induced by IL-21, addition of NCI-737): repressed
AUC ([3]; IV 10 mg/kg): 16500 ng·h/mL
AUC [3, 10]: 53400 ng·h/mL
pEC50 (MiaPaCa [4]): 6.63
TSCM cells (pmel-1 CD8+ T cells; IL-2-treated pmel-1 cells): restored TSCM cells in IL-2-treated cells to the levels observed with IL-21
TSCM cells (pmel-1 CD8+ T cells; IL-21-treated pmel-1 cells): synergized with IL-21 to generate TSCM cells
increase in the NADH/NAD+ ratio ([5]; IL-2-treated cells): ~100 fold
intracellular pyruvate ([5]; IL-2-treated cells): markedly increased
2-hydroxyglutarate (2HG) ([5]; IL-2 setting): decreased
increase in glycolytic intermediates and FGAR ([5]; IL-2 setting): > 4 fold
NADH/NAD+ ratio ([5]; IL-21 stimulated cells): slightly raised
intracellular pyruvate levels ([5]; IL-21 stimulated cells): did not alter
metabolite levels ([5]; IL-21 stimulated cells): little effect
lactate in cells ([5]; cells stimulated with either IL-2 or IL-21): lowered
pEC50 (A673 [6]): 6.46
pEC50 (MiaPaCa [7]): 6.50
pIC50 (LDA(B)): 7.36
pEC50 (A673 [8]): 6.66
SPR ka (+NADH) (lactate dehydrogenase): 16000 M⁻¹ s⁻¹
SPR kd (+NADH) (lactate dehydrogenase): <1e-06 s⁻¹
glucose consumption [9]: reduced
lactate secretion [9]: reduced
ECAR (mouse CD8+ T cells; IL-2-treated cells): decreased
OCR (mouse CD8+ T cells; IL-2-treated cells): significantly increased
SRC (mouse CD8+ T cells; IL-2-treated cells): significantly increased
ECAR (mouse CD8+ T cells; IL-21-treated cells): did not significantly alter
SRC (mouse CD8+ T cells; IL-21-treated cells): did not significantly alter
basal OCR (mouse CD8+ T cells; IL-21-treated cells): did not significantly alter

Cc1ccc(C#Cc2cc(-c3nn(-c4nc(C(=O)O)cs4)c(CC4CC4)c3Cc3ccc(S(N)(=O)=O)c(F)c3)ccc2F)s1 [Compound 390006]
pIC50 (LDH(A)): 7.10
AUC ([3]; IV 10 mg/kg): 10600 ng·h/mL
AUC [3, 10]: 31400 ng·h/mL
pEC50 (MiaPaCa [4]): 6.55
pEC50 (A673 [6]): 6.46
pEC50 (MiaPaCa [7]): 6.45
pIC50 (LDA(B)): 7.28
pEC50 (A673 [8]): 6.52
SPR ka (+NADH) (lactate dehydrogenase): 15000 M⁻¹ s⁻¹
SPR kd (+NADH) (lactate dehydrogenase): <1e-06 s⁻¹
